Data published in patent publication US10851348B2, “Proliferative primary human Sertoli cell cultures and their applications” (Mandalmed, Inc., priority 2006, dated 2020).

Experiments:
[1] = tested on: human Sertoli cells (MM-HSe-2305 cells); assay: BrdU proliferation of human Sertoli cells in response to FSH treatment; type: cell-based; details: 200-ng/ml FSH for 1 week; >50 fields; p<0.001 vs without FSH
Description: It has been reported that cultured rat Sertoli cells, proliferate in response to recombinant FSH (Buzzard, Wreford et al. 2002). We determined the response of the human cells to FSH treatment to provide further evidence that they are Sertoli cells. The human Sertoli cells (MM-HSe-2305 cells; 7,000 per well) were placed in 8-well chamber slides and incubated with control media or with media containing 200-ng/ml FSH (Sigma-Aldrich) for 1 week. Then the cells were labeled with BrdU that is incorporated into nuclei during DNA synthesis prior to mitosis. The slides were stained with anti-BrdU antibody (finally stained by Texas red) followed by staining with an antibody to FSHr (finally with FITC), and nuclei marked by bisbenzamide.
Briefly, the MM-HSE-2305 cells were labeled with BrdU (Roche; 100 μM) at 37° C./[…] for 2 hours then washed three times with PBS followed by fixing with 4% PFA for 30 min. […] Fluorescence was enhanced by incubating with ABC solution (Vector laboratories) for 30 min. Immunoreactivity was visualized by fluorescence microscopy using avidin-conjugated Texas red (1:200 in PBS) for 1 hour.
Photomicrographs were taken with different filters of the same field. The percentage of proliferating Sertoli cells was determined by the counting the number of FSHr, BrdU double positive cells and dividing this by the total number of cells per field. […]

rat Sertoli cell TJs = details: cited from earlier work

Molecule | percent of cells undergoing proliferation (FSHr, BrdU double positive cells / total cells) [1] [%] | effect on permeability of rodent Sertoli cell monolayers (rat Sertoli cell TJs; effect lasted for a number of days) | effect on Sertoli cell TJs (rat Sertoli cell TJs; in vivo, and in vitro at the 5 and 10 μM concentration)
follicle stimulating hormone [FSH] | 12.35 | – | –
[Cl][Cd][Cl] [Cadmium chloride, cadmium chloride] | – | increased the permeability | damage rat Sertoli cell TJs
